# Data from article PMC7403980, “Anti-Inflammatory Effects of the Novel PIM Kinase Inhibitor KMU-470 in RAW 264.7 Cells through the TLR4-NF-κB-NLRP3 Pathway” (International Journal of Molecular Sciences, 2020).
# Assays:
# BTK (h) = target: T1, BTK (h) (Homo sapiens, UniProt Q06187); experiment: Kinase profiling (Eurofins Cerep); assay type: biochemical; settings: KMU-470 10 μM; ATP at Km
# T1 construct: purchased Eurofins Cerep S.A. (kinase profiler service)
# Method: (§1) To test the specificity of the novel PIM kinase inhibitor KMU-470, a kinase profiler service was conducted by Eurofins Cerep S.A. The screening was performed with 1 and 10 μM of compound and a concentration of ATP at the Km value for each individual kinase and kinase substrate according to Eurofin’s protocols.
# Blk (h) = target: T2, Blk (h) (Homo sapiens, UniProt P51451); experiment: Kinase profiling (Eurofins Cerep); assay type: biochemical; settings: ATP at Km
# T2 construct: purchased Eurofins Cerep S.A. (kinase profiler service)
# T2 sequence (P51451 whole entry): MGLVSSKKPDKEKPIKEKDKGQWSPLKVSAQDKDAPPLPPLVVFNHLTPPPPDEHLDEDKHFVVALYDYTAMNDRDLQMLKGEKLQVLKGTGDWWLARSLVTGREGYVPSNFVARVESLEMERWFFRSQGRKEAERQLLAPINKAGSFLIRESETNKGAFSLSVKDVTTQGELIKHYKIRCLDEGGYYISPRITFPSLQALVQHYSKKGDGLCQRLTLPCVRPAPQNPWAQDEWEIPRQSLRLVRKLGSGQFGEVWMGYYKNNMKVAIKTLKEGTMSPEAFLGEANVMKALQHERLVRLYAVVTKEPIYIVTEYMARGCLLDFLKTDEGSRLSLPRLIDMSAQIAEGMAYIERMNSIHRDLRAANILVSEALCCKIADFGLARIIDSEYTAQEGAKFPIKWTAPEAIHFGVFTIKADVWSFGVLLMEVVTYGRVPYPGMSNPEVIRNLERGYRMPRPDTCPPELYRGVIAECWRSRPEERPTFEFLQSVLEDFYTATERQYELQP
# Method: as §1
# Bmx (h) = target: T3, Bmx (h) (Homo sapiens, UniProt P51813); experiment: Kinase profiling (Eurofins Cerep); assay type: biochemical; settings: KMU-470 10 μM; ATP at Km
# T3 construct: purchased Eurofins Cerep S.A. (kinase profiler service)
# Method: as §1
# Csrc (h) = target: T4, Csrc (h) (Homo sapiens, UniProt P12931); experiment: Kinase profiling (Eurofins Cerep); assay type: biochemical; settings: KMU-470 10 μM; ATP at Km
# T4 construct: purchased Eurofins Cerep S.A. (kinase profiler service)
# Method: as §1
# Fgr (h) = target: T5, Fgr (h) (Homo sapiens, UniProt P09769); experiment: Kinase profiling (Eurofins Cerep); assay type: biochemical; settings: ATP at Km
# T5 construct: purchased Eurofins Cerep S.A. (kinase profiler service)
# T5 sequence (P09769 whole entry): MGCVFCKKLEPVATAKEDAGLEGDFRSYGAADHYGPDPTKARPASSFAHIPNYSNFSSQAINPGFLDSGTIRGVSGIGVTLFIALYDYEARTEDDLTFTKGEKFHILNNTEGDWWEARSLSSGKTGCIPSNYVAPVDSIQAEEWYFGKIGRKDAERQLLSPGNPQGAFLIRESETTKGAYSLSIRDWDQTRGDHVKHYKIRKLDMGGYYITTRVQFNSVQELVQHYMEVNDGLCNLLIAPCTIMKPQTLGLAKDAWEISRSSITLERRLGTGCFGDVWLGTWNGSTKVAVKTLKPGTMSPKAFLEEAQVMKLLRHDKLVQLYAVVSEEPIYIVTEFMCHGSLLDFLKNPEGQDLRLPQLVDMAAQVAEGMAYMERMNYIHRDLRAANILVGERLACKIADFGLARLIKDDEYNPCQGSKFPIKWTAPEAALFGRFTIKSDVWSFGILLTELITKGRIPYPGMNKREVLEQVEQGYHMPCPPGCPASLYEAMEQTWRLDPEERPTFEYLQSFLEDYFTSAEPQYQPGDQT
# Method: as §1
# Fyn (h) = target: T6, Fyn (h) (Homo sapiens, UniProt P06241); experiment: Kinase profiling (Eurofins Cerep); assay type: biochemical; settings: ATP at Km
# T6 construct: purchased Eurofins Cerep S.A. (kinase profiler service)
# T6 sequence (P06241 whole entry): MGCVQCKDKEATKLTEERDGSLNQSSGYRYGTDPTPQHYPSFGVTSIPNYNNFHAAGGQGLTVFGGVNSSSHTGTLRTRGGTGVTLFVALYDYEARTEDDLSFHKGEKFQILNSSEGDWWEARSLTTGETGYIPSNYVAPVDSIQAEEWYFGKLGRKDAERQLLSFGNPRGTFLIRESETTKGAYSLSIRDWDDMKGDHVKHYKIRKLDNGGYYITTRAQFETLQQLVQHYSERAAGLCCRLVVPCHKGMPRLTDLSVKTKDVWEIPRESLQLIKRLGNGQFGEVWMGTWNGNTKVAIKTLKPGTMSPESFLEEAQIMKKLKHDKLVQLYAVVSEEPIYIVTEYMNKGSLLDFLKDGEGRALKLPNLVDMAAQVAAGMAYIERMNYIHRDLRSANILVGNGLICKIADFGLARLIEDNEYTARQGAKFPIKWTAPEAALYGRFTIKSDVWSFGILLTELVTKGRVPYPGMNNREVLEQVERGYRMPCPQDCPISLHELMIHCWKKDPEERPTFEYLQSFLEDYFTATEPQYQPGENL
# Method: as §1
# Hck (h) = target: T7, Hck (h) (Homo sapiens, UniProt P08631); experiment: Kinase profiling (Eurofins Cerep); assay type: biochemical; settings: KMU-470 10 μM; ATP at Km
# T7 construct: purchased Eurofins Cerep S.A. (kinase profiler service)
# Method: as §1
# Itk (h) = target: T8, Itk (h) (Homo sapiens, UniProt Q08881); experiment: Kinase profiling (Eurofins Cerep); assay type: biochemical; settings: ATP at Km
# T8 construct: purchased Eurofins Cerep S.A. (kinase profiler service)
# T8 sequence (Q08881 whole entry): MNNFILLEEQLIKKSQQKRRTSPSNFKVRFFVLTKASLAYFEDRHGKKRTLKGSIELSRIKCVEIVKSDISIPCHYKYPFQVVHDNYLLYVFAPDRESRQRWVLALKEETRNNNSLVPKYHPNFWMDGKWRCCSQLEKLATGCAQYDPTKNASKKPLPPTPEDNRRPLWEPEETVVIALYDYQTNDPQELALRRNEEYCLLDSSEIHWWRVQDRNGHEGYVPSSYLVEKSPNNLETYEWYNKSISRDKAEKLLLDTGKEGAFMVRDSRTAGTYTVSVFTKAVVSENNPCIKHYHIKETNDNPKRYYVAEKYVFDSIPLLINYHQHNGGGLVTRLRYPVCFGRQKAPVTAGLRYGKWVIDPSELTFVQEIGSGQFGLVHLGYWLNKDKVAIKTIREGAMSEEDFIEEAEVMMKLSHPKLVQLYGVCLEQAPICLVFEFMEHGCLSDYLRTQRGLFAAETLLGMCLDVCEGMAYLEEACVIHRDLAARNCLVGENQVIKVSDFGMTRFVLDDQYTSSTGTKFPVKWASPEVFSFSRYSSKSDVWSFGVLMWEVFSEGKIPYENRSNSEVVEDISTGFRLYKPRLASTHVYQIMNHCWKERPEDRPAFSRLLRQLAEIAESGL
# Method: as §1
# JAK1 (h) = target: T9, JAK1 (h) (Homo sapiens, UniProt P23458); experiment: Kinase profiling (Eurofins Cerep); assay type: biochemical; settings: ATP at Km
# T9 construct: purchased Eurofins Cerep S.A. (kinase profiler service)
# T9 sequence (P23458 whole entry): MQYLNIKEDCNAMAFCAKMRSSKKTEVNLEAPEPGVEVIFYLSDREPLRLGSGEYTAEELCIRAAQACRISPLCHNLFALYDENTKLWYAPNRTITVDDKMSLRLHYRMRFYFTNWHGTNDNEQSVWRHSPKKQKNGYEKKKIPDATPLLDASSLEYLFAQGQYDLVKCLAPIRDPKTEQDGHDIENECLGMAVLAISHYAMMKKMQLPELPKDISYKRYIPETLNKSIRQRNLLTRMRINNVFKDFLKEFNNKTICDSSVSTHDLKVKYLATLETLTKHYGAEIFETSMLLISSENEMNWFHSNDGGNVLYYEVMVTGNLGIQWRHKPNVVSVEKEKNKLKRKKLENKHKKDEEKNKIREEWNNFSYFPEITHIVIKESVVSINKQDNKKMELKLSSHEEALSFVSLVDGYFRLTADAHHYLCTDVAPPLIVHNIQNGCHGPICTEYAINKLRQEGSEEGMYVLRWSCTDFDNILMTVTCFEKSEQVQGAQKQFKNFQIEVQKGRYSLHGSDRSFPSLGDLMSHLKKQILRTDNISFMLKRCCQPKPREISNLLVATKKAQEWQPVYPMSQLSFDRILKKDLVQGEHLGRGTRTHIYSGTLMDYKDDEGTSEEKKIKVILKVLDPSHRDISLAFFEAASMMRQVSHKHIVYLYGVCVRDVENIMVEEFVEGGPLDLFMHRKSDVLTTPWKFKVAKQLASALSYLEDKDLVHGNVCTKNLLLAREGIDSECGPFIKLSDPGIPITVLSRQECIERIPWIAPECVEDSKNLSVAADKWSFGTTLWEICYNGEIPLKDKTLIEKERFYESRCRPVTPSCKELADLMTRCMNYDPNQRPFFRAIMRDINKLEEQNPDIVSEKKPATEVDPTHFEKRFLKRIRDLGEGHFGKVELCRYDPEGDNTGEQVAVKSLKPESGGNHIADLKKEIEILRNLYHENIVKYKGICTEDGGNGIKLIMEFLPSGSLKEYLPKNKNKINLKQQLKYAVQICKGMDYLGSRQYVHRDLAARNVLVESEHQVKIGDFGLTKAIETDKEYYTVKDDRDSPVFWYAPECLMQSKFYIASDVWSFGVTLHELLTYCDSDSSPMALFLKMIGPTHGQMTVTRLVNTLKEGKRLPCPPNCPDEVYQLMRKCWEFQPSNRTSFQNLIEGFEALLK
# Method: as §1
# JAK2 (h) = target: T10, JAK2 (h) (Homo sapiens, UniProt O60674); experiment: Kinase profiling (Eurofins Cerep); assay type: biochemical; settings: ATP at Km
# T10 construct: purchased Eurofins Cerep S.A. (kinase profiler service)
# Method: as §1
# JAK3 (h) = target: T11, JAK3 (h) (Homo sapiens, UniProt P52333); experiment: Kinase profiling (Eurofins Cerep); assay type: biochemical; settings: ATP at Km
# T11 construct: purchased Eurofins Cerep S.A. (kinase profiler service)
# Method: as §1
# JNK1α1 (h) = target: T12, JNK1α1 (h) (Homo sapiens, UniProt P45983); experiment: Kinase profiling (Eurofins Cerep); assay type: biochemical; settings: KMU-470 10 μM; ATP at Km
# T12 construct: purchased Eurofins Cerep S.A. (kinase profiler service)
# Method: as §1
# Lck (h) = target: T13, Lck (h) (Homo sapiens, UniProt P06239); experiment: Kinase profiling (Eurofins Cerep); assay type: biochemical; settings: ATP at Km
# T13 construct: purchased Eurofins Cerep S.A. (kinase profiler service)
# Method: as §1
# Lyn (h) = target: T14, Lyn (h) (Homo sapiens, UniProt P07948); experiment: Kinase profiling (Eurofins Cerep); assay type: biochemical; settings: ATP at Km
# T14 construct: purchased Eurofins Cerep S.A. (kinase profiler service)
# T14 sequence (P07948 whole entry): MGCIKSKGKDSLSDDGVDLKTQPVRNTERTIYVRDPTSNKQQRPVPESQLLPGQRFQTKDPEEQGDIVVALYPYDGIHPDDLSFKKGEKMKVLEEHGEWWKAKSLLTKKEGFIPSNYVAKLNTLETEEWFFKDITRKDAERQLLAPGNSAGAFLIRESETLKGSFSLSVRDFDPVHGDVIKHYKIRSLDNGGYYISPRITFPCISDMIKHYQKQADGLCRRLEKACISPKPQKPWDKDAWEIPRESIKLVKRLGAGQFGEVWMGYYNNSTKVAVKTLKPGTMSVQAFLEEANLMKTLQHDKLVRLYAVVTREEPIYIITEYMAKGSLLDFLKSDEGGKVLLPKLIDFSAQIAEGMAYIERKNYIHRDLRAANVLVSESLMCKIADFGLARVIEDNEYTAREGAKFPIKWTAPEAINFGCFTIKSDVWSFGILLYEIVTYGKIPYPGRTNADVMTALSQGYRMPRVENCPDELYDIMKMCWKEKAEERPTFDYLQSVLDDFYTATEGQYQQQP
# Method: as §1
# MAPK1 (h) = target: T15, MAPK1 (h) (Homo sapiens, UniProt P27361); experiment: Kinase profiling (Eurofins Cerep); assay type: biochemical; settings: ATP at Km
# T15 construct: purchased Eurofins Cerep S.A. (kinase profiler service)
# T15 sequence (P27361 2-379 limits assumed): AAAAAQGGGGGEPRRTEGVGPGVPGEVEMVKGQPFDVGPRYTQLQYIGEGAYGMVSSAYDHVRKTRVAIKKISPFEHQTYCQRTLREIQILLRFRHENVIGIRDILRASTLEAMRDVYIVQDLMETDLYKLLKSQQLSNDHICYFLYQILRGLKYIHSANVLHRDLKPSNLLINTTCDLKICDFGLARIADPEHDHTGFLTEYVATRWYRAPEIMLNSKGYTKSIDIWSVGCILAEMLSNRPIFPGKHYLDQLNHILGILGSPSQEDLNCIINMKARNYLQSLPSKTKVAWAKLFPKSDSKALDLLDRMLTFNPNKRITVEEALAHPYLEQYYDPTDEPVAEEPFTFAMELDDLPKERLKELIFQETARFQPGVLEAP
# Method: as §1
# Pyk2 (h) = target: T16, Pyk2 (h) (Homo sapiens, UniProt Q14289); experiment: Kinase profiling (Eurofins Cerep); assay type: biochemical; settings: KMU-470 10 μM; ATP at Km
# T16 construct: purchased Eurofins Cerep S.A. (kinase profiler service)
# Method: as §1
# SAPK2a (h) = target: T17, SAPK2a (h) (Homo sapiens, UniProt Q16539); experiment: Kinase profiling (Eurofins Cerep); assay type: biochemical; settings: KMU-470 10 μM; ATP at Km
# T17 construct: purchased Eurofins Cerep S.A. (kinase profiler service)
# Method: as §1
# Syk (h) = target: T18, Syk (h) (Homo sapiens, UniProt P43405); experiment: Kinase profiling (Eurofins Cerep); assay type: biochemical; settings: ATP at Km
# T18 construct: purchased Eurofins Cerep S.A. (kinase profiler service)
# Method: as §1
# TYK2 (h) = target: T19, TYK2 (h) (Homo sapiens, UniProt P29597); experiment: Kinase profiling (Eurofins Cerep); assay type: biochemical; settings: ATP at Km
# T19 construct: purchased Eurofins Cerep S.A. (kinase profiler service)
# Method: as §1
# Tec (h) activated = target: T20, Tec (h) activated (Homo sapiens, UniProt P42680); experiment: Kinase profiling (Eurofins Cerep); assay type: biochemical; settings: KMU-470 10 μM; ATP at Km
# T20 construct: purchased Eurofins Cerep S.A. (kinase profiler service)
# Method: as §1
# Txk (h) = target: T21, Txk (h) (Homo sapiens, UniProt P42681); experiment: Kinase profiling (Eurofins Cerep); assay type: biochemical; settings: KMU-470 10 μM; ATP at Km
# T21 construct: purchased Eurofins Cerep S.A. (kinase profiler service)
# Method: as §1
# Yes (h) = target: T22, Yes (h) (Homo sapiens, UniProt P07947); experiment: Kinase profiling (Eurofins Cerep); assay type: biochemical; settings: ATP at Km
# T22 construct: purchased Eurofins Cerep S.A. (kinase profiler service)
# T22 sequence (P07947 whole entry): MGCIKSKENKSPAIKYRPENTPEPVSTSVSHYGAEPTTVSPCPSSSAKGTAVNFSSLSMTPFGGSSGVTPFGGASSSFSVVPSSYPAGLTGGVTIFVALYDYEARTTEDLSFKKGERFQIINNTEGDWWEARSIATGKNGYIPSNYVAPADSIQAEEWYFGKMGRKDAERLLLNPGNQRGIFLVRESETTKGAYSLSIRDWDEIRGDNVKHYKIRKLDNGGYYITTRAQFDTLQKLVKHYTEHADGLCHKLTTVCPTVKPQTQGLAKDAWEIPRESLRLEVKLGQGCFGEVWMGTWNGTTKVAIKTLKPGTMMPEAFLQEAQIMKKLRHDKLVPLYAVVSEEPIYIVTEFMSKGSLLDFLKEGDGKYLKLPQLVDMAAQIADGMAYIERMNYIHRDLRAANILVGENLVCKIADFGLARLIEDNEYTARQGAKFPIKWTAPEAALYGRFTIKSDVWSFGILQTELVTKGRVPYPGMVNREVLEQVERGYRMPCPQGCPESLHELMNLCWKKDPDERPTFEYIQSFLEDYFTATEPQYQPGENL
# Method: as §1
# ZAP-70 (h) = target: T23, ZAP-70 (h) (Homo sapiens, UniProt P43403); experiment: Kinase profiling (Eurofins Cerep); assay type: biochemical; settings: KMU-470 10 μM; ATP at Km
# T23 construct: purchased Eurofins Cerep S.A. (kinase profiler service)
# Method: as §1
# RAW 264.7 cells = experiment: Toxicity / cell viability in RAW 264.7 cells (microscopy, trypan blue, XTT); assay type: cell-based, murine; settings: up to 1 µM, 24 h, trypan blue cell count
# Method: Figure 3 Inhibitory effect of KMU-470 on LPS-induced NO production and iNOS protein expression, and cell viability in RAW 264.7 cells. (A) The cells were pre-treated with KMU-470 at a concentration of 1 μM for 30 min and then treated with different concentrations of LPS for 24 h. Nitrite in the culture supernatant was collected and evaluated using Griess reagent. Absorbance was measured at 540 nm. *** p < 0.001, ** p < 0.01, * p < 0.05. (B) Cells are pre-treated with two different concentrations of KMU-470 (0.5 μM and 1 μM) for 30 min, followed by treatment with 1 μg/mL LPS for 24 h. β-actin was used as an internal control for Western blot analysis. (C) Image-J program was used to analyze the relative optical density of the iNOS band. (D) Cells were treated with various concentrations of KMU-470 for 24 h. The effects of KMU-470 on cell proliferation and morphological changes were observed by microscopy (X100). (E) The cell proliferation rate was determined by cell count using a trypan blue exclusion assay. *p < 0.05 (F) Effect of KMU-470 on cell viability was measured by XTT assay. *** p < 0.001.
# The cell viability assay was performed using a 2,3-bis (2-methoxy-4-nitro-5-sulphonyl)-2H-tetrazolium-5-carboxanilide (XTT) assay (Welgene Inc, Daegu, Korea). […] The optical density (OD) was measured using a microplate reader (BMG Labtech, Ortenberg, Germany) at a 450 nm wavelength. […]
structure (smiles),measurement,setting,value
"CN(C)CCNc1cncc(-c2ccc3c(c2)/C(=C/c2cnc[nH]2)C(=O)N3)n1 [KMU-470, (Z)-3-((1H-Imidazol-5-yl)methylene)-5-(6-((2-(dimethylamino)ethyl)amino)pyrazin-2-yl)indolin-2-one]",Activity (% Control) BTK (h),BTK (h),80 % Control
same,Activity (% Control) Blk (h),Blk (h); KMU-470 1 μM,53 % Control
same,Activity (% Control) Blk (h),Blk (h); KMU-470 10 μM,5 % Control
same,Activity (% Control) Bmx (h),Bmx (h),47 % Control
same,Activity (% Control) Csrc (h),Csrc (h),43 % Control
same,Activity (% Control) Fgr (h),Fgr (h); KMU-470 1 μM,42 % Control
same,Activity (% Control) Fgr (h),Fgr (h); KMU-470 10 μM,8 % Control
same,Activity (% Control) Fyn (h),Fyn (h); KMU-470 1 μM,97 % Control
same,Activity (% Control) Fyn (h),Fyn (h); KMU-470 10 μM,16 % Control
same,Activity (% Control) Hck (h),Hck (h),37 % Control
same,Activity (% Control) Itk (h),Itk (h); KMU-470 1 μM,75 % Control
same,Activity (% Control) Itk (h),Itk (h); KMU-470 10 μM,21 % Control
same,Activity (% Control) JAK1 (h),JAK1 (h); KMU-470 1 μM,61 % Control
same,Activity (% Control) JAK1 (h),JAK1 (h); KMU-470 10 μM,20 % Control
same,Activity (% Control) JAK2 (h),JAK2 (h); KMU-470 1 μM,107 % Control
same,Activity (% Control) JAK2 (h),JAK2 (h); KMU-470 10 μM,23 % Control
same,Activity (% Control) JAK3 (h),JAK3 (h); KMU-470 1 μM,38 % Control
same,Activity (% Control) JAK3 (h),JAK3 (h); KMU-470 10 μM,15 % Control
same,Activity (% Control) JNK1α1 (h),JNK1α1 (h),34 % Control
same,Activity (% Control) Lck (h),Lck (h); KMU-470 1 μM,41 % Control
same,Activity (% Control) Lck (h),Lck (h); KMU-470 10 μM,14 % Control
same,Activity (% Control) Lyn (h),Lyn (h); KMU-470 1 μM,30 % Control
same,Activity (% Control) Lyn (h),Lyn (h); KMU-470 10 μM,10 % Control
same,Activity (% Control) MAPK1 (h),MAPK1 (h); KMU-470 1 μM,6 % Control
same,Activity (% Control) MAPK1 (h),MAPK1 (h); KMU-470 10 μM,−18 % Control
same,Activity (% Control) Pyk2 (h),Pyk2 (h),41 % Control
same,Activity (% Control) SAPK2a (h),SAPK2a (h),77 % Control
same,Activity (% Control) Syk (h),Syk (h); KMU-470 1 μM,82 % Control
same,Activity (% Control) Syk (h),Syk (h); KMU-470 10 μM,21 % Control
same,Activity (% Control) TYK2 (h),TYK2 (h); KMU-470 1 μM,54 % Control
same,Activity (% Control) TYK2 (h),TYK2 (h); KMU-470 10 μM,14 % Control
same,Activity (% Control) Tec (h) activated,Tec (h) activated,71 % Control
same,Activity (% Control) Txk (h),Txk (h),50 % Control
same,Activity (% Control) Yes (h),Yes (h); KMU-470 1 μM,22 % Control
same,Activity (% Control) Yes (h),Yes (h); KMU-470 10 μM,−3 % Control
same,Activity (% Control) ZAP-70 (h),ZAP-70 (h),100 % Control
same,Toxicity in RAW 264.7 cells,RAW 264.7 cells,no toxicity
